# From ChEMBL document CHEMBL1126485, “Synthesis of nucleoside analogues with a 1,5-anhydrohexitol moiety” (1993)
# How the values were obtained:
# Human alphaherpesvirus 2 = assay: Concentration required for inhibition of proliferation of herpes simplex virus type II at 0.07 ug/mL.; type: functional
# [1] = Concentration required for inhibition of proliferation of herpes simplex virus type I at 0.07 ug/mL.; type: functional; conditions: Human alphaherpesvirus 1
compound,measurement,setting,value
O=c1[nH]c(=O)n(C2COC(CO)C(O)C2)cc1I (configuration not stated),inhibition at 0.07 µg/mL,Human alphaherpesvirus 2,50%
same,inhibition at 0.07 µg/mL,[1],50%
